We go through one molecule from patent US11479616B2, “Method for preparing okra polygalacturonic acid having uric acid-lowering effect” (Institute of Biological and Medical Engineering, Guangdong …, priority 2020, dated 2022).

For one assay, the system named is XOD. The assay can be described thus: Serum XOD activity of high uric acid mouse models, determined using an ELISA kit. Format: in vivo, C57BL/6 mice. The following applies: high uric acid mice, 100 mg/kg of body weight, intragastric, 30 days, mean ± SD, n = 6. The method, then: (§1) C57BL/6 mice (16.7-20.4 g, 6-7 weeks old) were provided by the Guangdong Medical Laboratory Animal Center, and quarantined for 4 days before the trial. During the trial, the mice were kept in a house with stable conditions with a 12 h:12 h light-dark cycle and given ad libitum access to food and water.
The mice were divided according to their weights into a negative control group (normal mice), a model control group (mice with high uric acid levels), a positive control group (mice with high uric acid levels, administrated with allopurinol tablets), a low-dosage group (mice with high uric acid levels, administrated with 50 mg/kg of the okra polygalacturonic acid), and a high-dosage group (mice with high uric acid levels, administrated with 200 mg/kg of the okra polygalacturonic acid), six mice in each group. […]
(§2) 3 hours after the last administration, the mice were anaesthetized using isoflurane, and blood was collected from each mouse by removing eyeballs. […] Blood uric acid levels, blood creatinine levels, and serum urea nitrogen levels were measured by an automatic biochemical analyzer, and XOD activities were determined using an ELISA kit.

In assay [1] the test system is mice with high uric acid levels. The assay can be described thus: Evaluation of uric acid-lowering effect in high uric acid mouse models (blood uric acid, blood creatinine, serum urea nitrogen). The following applies: 100 mg/kg of body weight, mean ± SD, n = 6. Format: in vivo, C57BL/6 mice. How it is done: as §1
The mice were divided according to their weights into a negative control group (normal mice), a model control group (mice with high uric acid levels), a positive control group (mice with high uric acid levels, administrated with allopurinol tablets), a low-dosage group (mice with high uric acid levels, […] acid), and a high-dosage group (mice with high uric acid levels, […]), six mice in each group. The mice of each group were treated with a corresponding solution through intragastric administration with a dosage of 20 mL per kg of body weight, wherein the mice of the positive control group were treated with a 5 mg/mL allopurinol solution, the mice of the negative control group and the model control group were treated with purified water, one administration per day. […] The mice were treated for 30 successive days.
Method for preparing OP1 samples: 45 mg of the okra polygalacturonic acid was weighed out and mixed well with a certain volume of purified water. The mixture was further added with purified water to a final volume of 4.5 mL to give a 10 mg/mL high-dosage solution, which shall be shaken well before used. 0.9 mL of the high-dosage solution was added with purified water to a final volume of 3.6 mL and mixed well to give a 2.5 mg/mL low-dosage solution, which shall be shaken well before used. […]
as §2

Turning to `Oc1ncnc2[nH]ncc12` [Positive control, allopurinol], the XOD activity with XOD was 19.8 ± 2.2 U/L. In assay [1] (intragastric, 30 days), this molecule registered a blood creatinine of 30.2 ± 5.7 µmol/L and a serum urea nitrogen of 23.3 ± 4.1 mmol/L. Moreover, the Blood uric acid in assay [1] (one intragastric administration per day for 30 days, serum 3 hours after last administration) stood at 134.8 ± 19.9 µmol/L.
